Laboratory results reported in patent US5187157A, “Peptide boronic acid inhibitors of trypsin-like proteases” (Du Pont Merck Pharmaceutical Company, priority 1988, dated 1993).

Tests used:
[1] = Stability of Inhibitors in Human Plasma As Measured By APTT; type: in vitro ADME; details: for Clotting Time: 250 nM in APTT assay
Method: The stability of inhibitors in plasma was determined by their ability to inhibit blood coagulation. First, a stock solutions (1.0 μM) of the inhibitors to be tested in 25 mM HEPES buffer, pH 7.5, containing 0.10 M sodium chloride were diluted 50% with normal human plasma. The mixtures were made at 0°, then aliquots (0.200 mL) were removed and incubated for 2 min at 37°. An equal volume of automated APTT reagent was added and clotting times were measured as described in Examples 111-117. The final concentration of inhibitor during the clotting assays was 250 nM. Values for compounds E and F were determined simultaneously with the Control. Values for compounds A, B and C were obtained on a different day.

normal human plasma [2] = assay: Prothrombin times (PT), blood coagulation in vitro; type: biochemical; details: for Calc. Concentration 2 × XPT: approximate concentration required to increase PT two fold
Method: (§1) The effectiveness of inhibitors in reactions in which they compete with natural substrates for target enzymes is measured in vitro in blood coagulation assays. Two different assays are used, the APTT (activated partial thromboplastin times) and PT (prothrombin times) assays. These assays mimic the blood clotting process in vivo. Blood coagulation occurs through either of two pathways, each consisting of a cascades of zymogen activation steps. The pathways are termed the intrinsic and the extrinsic pathways (see L. Lorand, Methods in Enzymology 45: 31-37 (1976). The intrinsic pathway is initiated by negatively charged surfaces in which plasma kallikrein, factor XII and factor […] are activated and then factors IX and X and prothrombin are activated in calcium dependent steps. Thrombin, the last protease in the cascade, hydrolyses fibrinogen to fibrin which results in clot formation. In the APTT assay, plasma components are activated by exposure to negatively charged surfaces and then clotting times are measured after calcium is added to the system. In the extrinsic pathway, tissue thromboplastin activates factor VII which then activates factor X leading to the activation of thrombin. These events are measured in the prothrombin times assay.
For PT assays, inhibitor solutions (0.100 mL) were incubated with normal human plasma (0.100 mL) for 2 min at 37°.

Human thrombin = target: T1, Human thrombin (Homo sapiens, UniProt P00734); assay: Inhibition of Thrombin (Esterase Activity); type: biochemical; details: activity remaining 10 to 20 min after initiation
T1 construct: purchased R.Q.P. Laboratories, South Bend, IN Lot HT102
Method: (§2) In the Examples which follow, the hydrolytic activity of each enzyme is measured in both the presence and absence of inhibitor and the percent enzyme activity determined. […] A steady state is reached fairly rapidly and nears completion within 5 min. Activity is evaluated between 10-20 min after the components are mixed to insure that reaction components are at equilibrium. The lowest concentration of inhibitor tested is determined by the estimated concentration of enzyme. […] The maintenance of pseudo-first-order reaction conditions and the sensitivity of the respective assays sets the lowest limit level of inhibitor tested at 10 nM for kallikrein inhibitors and 5 nM for thrombin inhibitors.
A stock solution of thrombin was prepared in 0.010M PIPES Buffer, pH 6.0, containing 0.75 M sodium chloride. […] The initial concentration of substrate was 0.10 mM and the concentration of thrombin was 1.0 nM (based on weight).

Human plasma kallikrein = target: T2, Human plasma kallikrein (Homo sapiens, UniProt P03952); assay: Inhibition of Human Plasma Kallikrein; type: biochemical; details: activity remaining 10 to 20 min after initiation
T2 construct: purchased Protogen AG (Switzerland)
Method: as §2
Human plasma kallikrein was obtained from Protogen AG (Switzerland). The specific activity as described by the supplier is 15 units per mg. A unit is defined as the quantity of enzyme required to hydrolyze 1 μmole of substrate, H-(D)Pro-Phe-Arg-p-nitroanilide (Kabi S2302), per min at a substrate concentration of 0.50 mM at 25° in 50 mM potassium phosphate buffer, pH 8.0.

[3] = Stability of Inhibitors in Buffer (thrombin assay); details: for Percent Thrombin activity: 1.0 μM; for stability in phosphate buffer at pH 7.5 (inhibitory activity): phosphate buffer pH 7.5
Method: Samples of the inhibitors are removed at increasing time intervals and their ability to delay clotting is measured at each interval.
Inhibitors, each at a concentration of 1.0 μM, were incubated at room temperature in 0.20 M sodium phosphate buffer, pH 7.5, containing 0.20 M sodium chloride and 0.10% PEG.

normal human plasma [4] = assay: Activated partial thromboplastin times (APTT), blood coagulation in vitro; type: biochemical; details: for Calc. Concentration 2 × APTT: approximate concentration required to increase APTT two fold
Method: as §1
The effect of protease inhibitors on blood coagulation in vitro was determined by measuring their effects on two different clinical parameters, the activated partial thromboplastin times (APTT) and prothrombin times (PT). Reagents for each of these assays were supplied by General Diagnostics, Jessup MD. Stock solutions of inhibitors were prepared in […] HEPES buffer, pH 7.5, containing 0.10 M sodium chloride. For the APTT assay, the inhibitor solution (0.100 mL) was incubated with normal human plasma (0.100 mL) and automated APTT reagent (0.100 mL). After incubation for 5.0 min at 37°, calcium chloride (0.100 mL) was added and the clotting times, measured in seconds, was determined on a fibrameter. The effects of the varying concentrations of inhibitor on blood clotting times compared with the clotting times of controls run in the absence of inhibitor, are shown in Table 3.

Sprague Dawley CD Rats = assay: In Vivo Inhibition of Croton Oil Induced Inflammation (ear swelling); details: for Mean Swelling (mg ± SE): right minus left ear weight
Method: Two solutions were prepared, the first consisting of 5% croton oil, a known inflammatory agent, in an acetone carrier (Croton Solution) and the second consisting of 5% croton oil in an acetone carrier to which 10 mg/mL of a compound of the invention was added (Compound Solution). The Croton Solution (10 μL), or alternatively the Compound Solution (10 μL), was applied to the right ear of each animal (Sprague Dawley CD Rats, 130-140 g, supplied by Charles River Labs, Inc., Wilmington, MA). […] "SE" denotes standard error.

[5] = incubation in human plasma 0.5 h
[6] = incubation in human plasma 24 h
[7] = Table 14, dose=100 μg, essentially the same conditions
[8] = incubation in human plasma 48 h
[9] = 100 μg/ear with 5% croton oil, topical, 1 h
[10] = Table 13, 100 μg/ear with 5% croton oil, topical, 1 h

T2 sequence (P03952 391-638 limits assumed): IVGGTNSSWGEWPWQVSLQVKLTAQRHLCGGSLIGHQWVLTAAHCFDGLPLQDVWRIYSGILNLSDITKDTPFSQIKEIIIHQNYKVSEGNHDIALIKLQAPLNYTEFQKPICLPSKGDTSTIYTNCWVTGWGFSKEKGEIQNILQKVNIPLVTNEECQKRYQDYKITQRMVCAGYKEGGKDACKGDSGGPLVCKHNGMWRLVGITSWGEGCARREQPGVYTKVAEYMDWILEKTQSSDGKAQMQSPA
T2 sequence (P03952 20-390 partner limits assumed): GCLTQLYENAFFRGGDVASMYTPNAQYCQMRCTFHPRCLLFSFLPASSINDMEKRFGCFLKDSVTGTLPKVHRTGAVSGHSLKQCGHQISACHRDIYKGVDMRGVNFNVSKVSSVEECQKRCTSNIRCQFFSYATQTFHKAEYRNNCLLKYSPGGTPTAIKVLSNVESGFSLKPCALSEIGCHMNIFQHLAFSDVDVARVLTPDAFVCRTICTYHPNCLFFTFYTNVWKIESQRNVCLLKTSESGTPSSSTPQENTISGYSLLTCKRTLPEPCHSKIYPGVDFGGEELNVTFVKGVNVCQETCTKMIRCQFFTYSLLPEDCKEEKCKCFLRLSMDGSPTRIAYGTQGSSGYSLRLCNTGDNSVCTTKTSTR

SMILES | Clotting Time ([1]; incubation in human plasma 0 h) | Clotting Time [1, 5] | Clotting Time ([1]; incubation in human plasma 1 h) | Clotting Time ([1]; incubation in human plasma 2 h) | Clotting Time ([1]; incubation in human plasma 4 h) | Clotting Time [1, 6] | Calc. Concentration 2 × XPT (normal human plasma [2]) | Prothrombin Times (normal human plasma [2]; inhibitor 500 nM) | Prothrombin Times (normal human plasma [2]; inhibitor 750 nM) | Prothrombin Times (normal human plasma [2]; inhibitor 1000 nM) | Percent Activity (Human plasma kallikrein; inhibitor 10 nM) | Calc. Concentration 2 × APTT (normal human plasma [4]) | Activated Partial Thromboplastin Times (normal human plasma [4]; inhibitor 125 nM) | Activated Partial Thromboplastin Times (normal human plasma [4]; inhibitor 200 nM) | Activated Partial Thromboplastin Times (normal human plasma [4]; inhibitor 350 nM) | Prothrombin Times (normal human plasma [2]; inhibitor 2000 nM) | Prothrombin Times (normal human plasma [2]; inhibitor 4000 nM) | Activated Partial Thromboplastin Times (normal human plasma [4]; inhibitor 50 nM) | Activated Partial Thromboplastin Times (normal human plasma [4]; inhibitor 275 nM) | Activated Partial Thromboplastin Times (normal human plasma [4]; inhibitor 550 nM) | other results
CC1(C)C2CC3OB(C(CCCN=C(N)N)NC(=O)C4CCCN4C(=O)C(N)Cc4ccccc4)OC3(C)C1C2.Cl.Cl (stereo not drawn) [B, H-(D)Phe-Pro-boroArg-C10 H16.2HCl] | 152.2 s | 157.7 s | 163.7 s | 152.8 s | 157.7 s | 109.3 s | 460 nM | 33.8 s | 85.3 s | > 250 s | 61% | 170 nM | 44.2 s | 71.5 s | 249.7 s |  |  |  |  |  | stability in human plasma (inhibitor activity by clotting time) ([1]; incubation with plasma): lost activity after 24 h; Prothrombin Times (normal human plasma [2]; inhibitor 12.5 nM): 20.1 s; Prothrombin Times (normal human plasma [2]; inhibitor 250 nM): 22.5 s; Prothrombin Times (normal human plasma [2]; inhibitor 625 nM): 46.5 s; Percent Activity (Human thrombin; inhibitor 5 nM): 7%; Percent Thrombin activity ([3]; 0 hr in 0.20 M sodium phosphate buffer pH 7.5, room temperature): 2.0%; Percent Thrombin activity ([3]; 0.5 hr in 0.20 M sodium phosphate buffer pH 7.5, room temperature): 15%; Percent Thrombin activity ([3]; 1 hr in 0.20 M sodium phosphate buffer pH 7.5, room temperature): 100%; stability in phosphate buffer at pH 7.5 (inhibitory activity) [3]: loses its biological activity over a period of an hour; stability in phosphate buffer at pH 7.5 (inhibitory activity) ([3]; listed as H-(D)Phe-Pro-boroArg-C10 H16): lost inhibitory activity within one hour; Activated Partial Thromboplastin Times (normal human plasma [4]; inhibitor 62.5 nM): 36.5 s; Activated Partial Thromboplastin Times (normal human plasma [4]; inhibitor 250 nM): 158.7 s; Activated Partial Thromboplastin Times (normal human plasma [4]; inhibitor 300 nM): 169.7 s
Br.CC(C)(C)OC(=O)NC(Cc1ccccc1)C(=O)NC(Cc1ccccc1)C(=O)NC(CCCSC(=N)N)B1OC2CC3CC(C3(C)C)C2(C)O1 (stereo not drawn) [Compound D, Boc-(D)Phe-Phe-boroIrg-C10 H16.HBr] |  |  |  |  |  |  | 1200 nM | 15.7 s | 17.2 s | 19.9 s | 2% | 370 nM | 45.2 s | 46.2 s | 75.7 s | 23.4 s | 49.2 s | 35.8 s | 60.7 s | 94.8 s | Percent Activity (Human thrombin; inhibitor 5 nM): 48%; Percent Inhibition (Sprague Dawley CD Rats; [7]): 93%
CC(=O)NC(Cc1ccccc1)C(=O)NC(CCCNC(=N)N)B1OC2CC3CC(C3(C)C)C2(C)O1.Cl (stereo not drawn) [Compound F, Ac-Phe-boroArg-C10 H16.HCl] | 76.3 s | 76.4 s | 76.7 s | 79.6 s | 81.8 s | 73.9 s | 2500 nM |  |  | 16.2 s | 48% | 325 nM | 35.2 s | 36.7 s | 58.2 s | 20.8 s | 51.5 s | 35 s | 44.8 s | 144.2 s | Clotting Time ([1]; incubation in human plasma 3 h): 77.8 s; Clotting Time ([1]; incubation in human plasma 5 h): 80.8 s; Clotting Time ([1]; incubation in human plasma 6 h): 79.3 s; Clotting Time [1, 8]: 49.3 s; Percent Activity (Human thrombin; inhibitor 1000 nM): 53%; Mean Right ear Wt. (Sprague Dawley CD Rats; [9]): 18.9 mg; Mean Swelling (mg ± SE) (Sprague Dawley CD Rats; [9]): 2.3 ± 0.7 mg; Percent Inhibition (Sprague Dawley CD Rats; [10]): 79%
CC(C)(C)OC(=O)N[C@H](Cc1ccccc1)C(=O)N[C@@H](Cc1ccccc1)C(=O)N[C@@H](CCCNC(=N)N)B1OC2CC3CC(C3(C)C)C2(C)O1.O=S(=O)(O)c1ccccc1 (stereo partly drawn) [E, Boc-(D)Phe-Phe-boroArg-C10 H16.benzene sulfonic acid] | 63.2 s | 73.2 s | 66.2 s | 67.7 s | 58.2 s | 64.7 s | 2600 nM | 19.8 s | 22 s | 29.3 s | 5.2% | 375 nM | 40.5 s | 43.6 s | 54.8 s | 39 s | 70.8 s | 36.8 s | 52.8 s | 61.3 s | Clotting Time ([1]; incubation in human plasma 3 h): 61.7 s; Clotting Time ([1]; incubation in human plasma 5 h): 61.3 s; Clotting Time ([1]; incubation in human plasma 6 h): 57.3 s; Clotting Time [1, 8]: 58.7 s; Percent Activity (Human thrombin; inhibitor 10 nM): 32%; Percent Inhibition (Sprague Dawley CD Rats; [7]): 82%
Br.CC(=O)NC(Cc1ccccc1)C(=O)NC(CCCSC(=N)N)B1OC2CC3CC(C3(C)C)C2(C)O1 (stereo not drawn) [G, Ac-Phe-boroIrg-C10 H16.HBr] |  |  |  |  |  |  | 1200 nM | 13.7 s | 14.9 s | 19.7 s |  | 625 nM | 36.2 s | 39.3 s | 66.7 s | 43.6 s |  | 35.2 s | 58.2 s | 98.4 s | Percent Activity (Human thrombin; inhibitor 1000 nM): 64%; Percent Activity (Human plasma kallikrein; inhibitor 50 nM): 17%; Percent Inhibition (Sprague Dawley CD Rats; [7]): 69%
COc1ccc2c(c1)c(CC(=O)O)c(C)n2C(=O)c1ccc(Cl)cc1 [Indomethacin, indomethacin, reference compound] |  |  |  |  |  |  |  |  |  |  |  |  |  |  |  |  |  |  |  |  | Mean Right ear Wt. (Sprague Dawley CD Rats; [9]): 20.6 mg; Mean Swelling (mg ± SE) (Sprague Dawley CD Rats; [9]): 5.0 ± 2.8 mg; Percent Inhibition (Sprague Dawley CD Rats; [10]): 55%
